Data published in US5739291A, “Glutamate receptor antibodies” (The Salk Institute For Biological Studies, priority 1995, dated 1998).
Where two headings read alike, the source gives them in different places.

Legend:
[1] = target: T1, GluR1 (Rattus norvegicus, UniProt P19490); experiment: Voltage-clamp recording in Xenopus oocytes injected with GluR1 in vitro RNA; format: cell-based; details: for inhibition of kainate-evoked depolarizations (in words) / agonist properties (in words): each at 1 mM
T1 construct: expressed in transfected cells; host or cells: Xenopus oocytes injected with GluR1 in vitro sense RNA
T1 sequence (P19490 19-907 S67T/A248R/S789T): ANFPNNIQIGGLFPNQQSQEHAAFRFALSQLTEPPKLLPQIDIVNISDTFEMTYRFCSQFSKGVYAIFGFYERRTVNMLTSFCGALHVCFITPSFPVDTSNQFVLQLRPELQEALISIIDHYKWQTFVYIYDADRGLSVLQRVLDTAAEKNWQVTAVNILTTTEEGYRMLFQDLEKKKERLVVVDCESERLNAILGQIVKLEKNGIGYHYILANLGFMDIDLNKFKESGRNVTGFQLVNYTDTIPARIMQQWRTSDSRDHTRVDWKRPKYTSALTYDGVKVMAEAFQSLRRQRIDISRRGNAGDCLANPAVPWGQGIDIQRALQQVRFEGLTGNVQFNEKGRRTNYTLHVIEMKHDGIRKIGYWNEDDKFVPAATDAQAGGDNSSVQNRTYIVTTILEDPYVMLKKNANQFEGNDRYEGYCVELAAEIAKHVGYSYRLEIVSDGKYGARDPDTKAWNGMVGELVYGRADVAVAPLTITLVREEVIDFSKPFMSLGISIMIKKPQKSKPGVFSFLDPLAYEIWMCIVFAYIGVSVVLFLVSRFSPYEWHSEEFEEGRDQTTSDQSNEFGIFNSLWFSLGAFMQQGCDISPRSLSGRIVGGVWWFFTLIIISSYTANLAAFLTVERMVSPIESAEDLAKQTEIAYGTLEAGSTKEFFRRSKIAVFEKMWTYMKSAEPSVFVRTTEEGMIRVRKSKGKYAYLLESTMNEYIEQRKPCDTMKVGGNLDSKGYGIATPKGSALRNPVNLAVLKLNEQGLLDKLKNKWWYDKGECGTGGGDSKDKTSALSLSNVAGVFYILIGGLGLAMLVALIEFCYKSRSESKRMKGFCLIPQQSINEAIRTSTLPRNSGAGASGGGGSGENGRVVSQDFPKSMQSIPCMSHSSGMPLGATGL
Excerpt: Either a λZAP cDNA preparation, or a plasmid containing the cDNA to be tested, are cut downstream from the cDNA insert with a restriction enzyme. The post-restriction digest is digested with Proteinase K and then extracted with two phenol: chloroform (1:1) extractions. The resulting DNA fragments are then ethanol precipitated. The precipitated fragments are mixed with either T3 RNA polymerase (to make sense strand), or T7 RNA polymerase (to make anti-sense strand), plus rATP, rCTP, rGTP, rUTP, and RNase inhibitor. Simultaneously, the RNA transcripts are capped with a sodium diguanosine triphosphate [G(5')ppp(5')G] cap. The water used for the above procedures is treated with diethylpyrocarbonate to inactivate RNases.
The in vitro synthesized mRNA transcripts are injected into Xenopus oocytes. 50 nl of an RNA solution, 0.2-0.6 mg/ml, is injected into the stage V oocytes. The injected oocytes are incubated at 16° C. in Barth's medium for 2-7 days before they are analyzed for the presence of functional receptors.
Voltage recordings are made by penetrating the oocyte with a micro-electrode filled with 3M KCl and connected to the bridge circuit of an appropriate voltage clamp unit, e.g., the Dagan 8500 voltage clamp unit. Voltage recordings are preferably obtained with two electrodes, a voltage electrode filled with 3M KCl and a current electrode filled with 0.25M CsCl, 0.25M CsF and 50 mM EGTA (ethylene glycol tetraacetic acid).
Oocytes employed herein are obtained from ovarian tissue from anesthetized adult female Xenopus. The ovarian tissue is treated with collagenase, 2 mg/ml, for two hours and then the ovarian epithelium and follicular cells are dissected away.
The plasmid pGluR1 was subsequently rescued from bacteriophage λZAPII-GluR1.
3 days prior to the recording. The oocytes were voltageclamped at -70 mV,
applied by rapid superfusion, with 5 minute intervals between drugs. Peak
currents were recorded; each number represents the average of 3 recording
from 3 different oocytes, ± SEM.
(§1) The data in FIG. 3B represent the responses of oocytes to the indicated agonists measured 3 days after injection with GluR1 (2 ng) or GluR3 (2 ng) RNA or adult rat brain hippocampus poly(A)^+ RNA (~50 ng). All values are normalized to the response obtained with […] and are presented as the mean ± S.E.M. with n≥3 for all measurements.

[2] = target: GluR5-2 (Rattus norvegicus, UniProt P22756); format: cell-based
GluR5-2, sequence (P22756 31-949): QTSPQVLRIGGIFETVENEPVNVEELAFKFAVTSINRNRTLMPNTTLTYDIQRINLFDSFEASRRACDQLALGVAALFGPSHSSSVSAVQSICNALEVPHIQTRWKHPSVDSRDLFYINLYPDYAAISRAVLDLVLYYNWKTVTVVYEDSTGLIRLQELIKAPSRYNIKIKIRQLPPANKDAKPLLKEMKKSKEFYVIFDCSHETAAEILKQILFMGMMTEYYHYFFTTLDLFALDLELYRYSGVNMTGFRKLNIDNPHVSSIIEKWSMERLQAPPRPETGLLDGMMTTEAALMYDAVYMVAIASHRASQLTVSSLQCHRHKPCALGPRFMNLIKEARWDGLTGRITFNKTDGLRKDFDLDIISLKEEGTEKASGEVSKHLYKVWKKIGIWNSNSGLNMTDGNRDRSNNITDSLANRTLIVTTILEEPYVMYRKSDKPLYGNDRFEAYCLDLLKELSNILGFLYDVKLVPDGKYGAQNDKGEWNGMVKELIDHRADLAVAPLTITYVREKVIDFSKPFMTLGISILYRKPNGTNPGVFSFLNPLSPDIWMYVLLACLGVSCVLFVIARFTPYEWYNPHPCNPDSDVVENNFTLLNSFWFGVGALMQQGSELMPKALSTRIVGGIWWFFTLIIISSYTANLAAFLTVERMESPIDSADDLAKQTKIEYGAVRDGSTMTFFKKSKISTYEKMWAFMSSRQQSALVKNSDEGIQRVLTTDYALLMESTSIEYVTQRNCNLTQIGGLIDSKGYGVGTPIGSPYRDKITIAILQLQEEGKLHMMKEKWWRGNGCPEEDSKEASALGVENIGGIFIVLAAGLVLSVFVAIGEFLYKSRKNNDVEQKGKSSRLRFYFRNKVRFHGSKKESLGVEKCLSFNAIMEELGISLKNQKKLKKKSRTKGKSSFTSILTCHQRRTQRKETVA
Excerpt: (§2) In vitro synthesized GluR5-1 and GluR5-2 cRNAs were individually expressed in Xenopus oocytes.

[3] = target: GluR5-1 (Rattus norvegicus, UniProt P22756); format: cell-based
GluR5-1, sequence (P22756 with tags, fused parts or gaps K282L/C354W/A355R/A477G/DEL870-898): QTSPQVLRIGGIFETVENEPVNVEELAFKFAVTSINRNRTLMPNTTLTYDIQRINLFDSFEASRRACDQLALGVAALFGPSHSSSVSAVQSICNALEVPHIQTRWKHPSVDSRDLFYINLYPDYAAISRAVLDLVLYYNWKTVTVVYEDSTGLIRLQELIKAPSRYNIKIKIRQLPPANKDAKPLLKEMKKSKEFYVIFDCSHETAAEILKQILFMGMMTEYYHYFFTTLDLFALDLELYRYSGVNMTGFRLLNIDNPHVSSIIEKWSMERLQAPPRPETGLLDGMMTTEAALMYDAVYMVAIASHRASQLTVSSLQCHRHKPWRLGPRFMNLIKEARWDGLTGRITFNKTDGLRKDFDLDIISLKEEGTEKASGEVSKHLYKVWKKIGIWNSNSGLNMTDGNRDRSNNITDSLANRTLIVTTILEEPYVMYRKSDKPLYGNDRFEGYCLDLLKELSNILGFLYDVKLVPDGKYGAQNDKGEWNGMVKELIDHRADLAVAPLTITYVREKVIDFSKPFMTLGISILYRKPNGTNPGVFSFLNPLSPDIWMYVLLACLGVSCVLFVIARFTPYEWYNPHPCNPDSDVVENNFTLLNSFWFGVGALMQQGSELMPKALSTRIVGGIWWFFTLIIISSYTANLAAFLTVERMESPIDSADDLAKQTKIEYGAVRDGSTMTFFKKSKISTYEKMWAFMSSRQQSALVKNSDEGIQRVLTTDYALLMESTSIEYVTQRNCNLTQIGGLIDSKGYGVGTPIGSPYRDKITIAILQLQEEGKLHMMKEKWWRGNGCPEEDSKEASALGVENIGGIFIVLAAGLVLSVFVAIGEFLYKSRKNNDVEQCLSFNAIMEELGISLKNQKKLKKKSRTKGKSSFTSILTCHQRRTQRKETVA
Excerpt: as §2

[4] = target: T2, homomeric GluR6 receptor (Rattus norvegicus, UniProt P42260, I567V/Q621R/Y571C); experiment: Homomeric GluR6 ion channel in Xenopus oocytes injected with in vitro transcribed RNA; format: cell-based; details: for responsiveness of homomeric ion channels: summary statement; for current at -70 mV: 10 μM kainate
T2 construct: A 4559 base pair cDNA encoding a protein of 884 amino acid residues was engineered from RC11 and RC27; expressed in transfected cells; host or cells: Xenopus oocytes injected with in vitro transcribed GluR6 RNA
T2 sequence (P42260 with tags, fused parts or gaps I567V/Y571C/Q621R): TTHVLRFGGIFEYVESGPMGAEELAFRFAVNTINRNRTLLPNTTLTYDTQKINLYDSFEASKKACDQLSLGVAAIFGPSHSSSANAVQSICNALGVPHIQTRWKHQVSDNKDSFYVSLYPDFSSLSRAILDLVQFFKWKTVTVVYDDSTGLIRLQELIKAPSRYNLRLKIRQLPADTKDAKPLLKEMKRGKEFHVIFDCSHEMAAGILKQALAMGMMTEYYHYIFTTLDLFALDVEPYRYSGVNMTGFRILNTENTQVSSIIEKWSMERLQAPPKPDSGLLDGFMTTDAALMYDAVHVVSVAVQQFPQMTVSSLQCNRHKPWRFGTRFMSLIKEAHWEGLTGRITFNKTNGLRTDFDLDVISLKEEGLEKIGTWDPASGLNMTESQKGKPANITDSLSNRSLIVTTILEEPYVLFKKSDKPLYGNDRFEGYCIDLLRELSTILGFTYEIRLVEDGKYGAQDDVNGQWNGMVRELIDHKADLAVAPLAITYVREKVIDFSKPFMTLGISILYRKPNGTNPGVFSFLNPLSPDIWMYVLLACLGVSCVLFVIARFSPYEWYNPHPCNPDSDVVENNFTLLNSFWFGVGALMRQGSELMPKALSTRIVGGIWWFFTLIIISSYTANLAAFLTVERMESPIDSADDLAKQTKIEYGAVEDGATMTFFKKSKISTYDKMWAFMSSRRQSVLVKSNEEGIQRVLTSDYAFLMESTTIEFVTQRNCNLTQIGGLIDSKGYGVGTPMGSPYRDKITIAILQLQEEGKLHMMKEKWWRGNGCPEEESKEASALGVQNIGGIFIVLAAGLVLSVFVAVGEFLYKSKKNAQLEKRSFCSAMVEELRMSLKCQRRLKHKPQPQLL

[5] = target: GluR3 (Rattus norvegicus, UniProt P19492); format: cell-based
GluR3, sequence (P19492 23-888): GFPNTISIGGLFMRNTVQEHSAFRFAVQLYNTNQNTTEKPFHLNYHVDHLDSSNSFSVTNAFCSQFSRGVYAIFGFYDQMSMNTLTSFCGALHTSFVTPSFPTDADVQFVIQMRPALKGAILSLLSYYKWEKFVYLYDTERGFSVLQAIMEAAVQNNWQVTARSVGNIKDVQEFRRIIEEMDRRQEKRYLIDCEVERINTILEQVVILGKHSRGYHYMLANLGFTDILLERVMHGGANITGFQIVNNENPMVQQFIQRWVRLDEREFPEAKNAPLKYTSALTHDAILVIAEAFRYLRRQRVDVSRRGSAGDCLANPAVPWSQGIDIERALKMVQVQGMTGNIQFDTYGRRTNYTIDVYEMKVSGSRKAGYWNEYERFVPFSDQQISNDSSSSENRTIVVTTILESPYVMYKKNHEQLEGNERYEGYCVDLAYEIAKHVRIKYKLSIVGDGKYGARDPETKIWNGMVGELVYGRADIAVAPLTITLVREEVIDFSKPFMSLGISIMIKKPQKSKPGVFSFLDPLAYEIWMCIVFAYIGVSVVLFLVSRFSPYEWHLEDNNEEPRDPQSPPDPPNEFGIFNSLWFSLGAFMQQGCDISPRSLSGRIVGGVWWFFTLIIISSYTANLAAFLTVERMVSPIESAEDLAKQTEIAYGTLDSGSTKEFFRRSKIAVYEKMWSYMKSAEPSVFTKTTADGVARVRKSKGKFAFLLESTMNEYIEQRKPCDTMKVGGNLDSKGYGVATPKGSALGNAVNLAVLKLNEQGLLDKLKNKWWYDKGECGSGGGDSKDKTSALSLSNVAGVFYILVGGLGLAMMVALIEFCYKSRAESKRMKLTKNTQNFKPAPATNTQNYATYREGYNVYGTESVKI
Method: Thus, oocytes were injected with in vitro synthesized RNA transcripts derived from individual cDNA clones.
as §1

[6] = system: glutamate receptor subtypes; format: cell-based, rat; details: 2-10 days after injection
[7] = system: kainate receptor; format: cell-based, rat
Method: A directional cDNA library (λZAPII RTB1; complexity: 8×10^5 elements), consisting of 18 independent sublibraries of 44,000 clones each, was constructed from this poly(A)^+ RNA using the bacteriophage expression vector λZAPII. A pool of in vitro transcripts, comprised of transcripts made separately from all 18 amplified sublibraries, was injected into oocytes. […] Subsequently, pools of 44,000 clones (=the single sublibraries), 4,000, 400 and 40 clones were tested.

[8] = target: kainate receptors derived from forebrain mRNA; details: read-out: Ki for block of kainate responses; literature value (Verdoorn et al.); cited from earlier work
[9] = oocytes held at -100 mV, before Con A, AMPA 100 μM
[10] = QUIS 10 μM, AMPA 50 μM, GLU 100 μM, NMDA 30 μM plus 10 μM glycine, APB 50 μM, -70 mV, 2 ng RNA, 3 days

Structure (SMILES): O=C(O)c1cc(=O)c2ccccc2[nH]1 [Kynurenic acid]
- inhibition of kainate-evoked depolarizations (in words) [1]: most potent inhibitor
- Compound Alone (%): % of the response evoked by 30 μM kainate immediately before drug application ([1]; xenopus oocytes, 1000 µM): 3.4 ± 0.2%
- Compound Plus Kainate (%): % of the response seen with 30 μM kainate alone ([1]; xenopus oocytes, 1000 µM): 9.6 ± 1.3%

Structure (SMILES): O=C(O)[C@H]1CCCN[C@H]1C(=O)O (relative stereo) [PDA, 2,3cis-piperidine dicarboxylic acid]
- inhibition of kainate-evoked depolarizations (in words) [1]: blocked the GluR1 response
- Compound Alone (%): % of the response evoked by 30 μM kainate immediately before drug application ([1]; xenopus oocytes, 1000 µM): 2.5 ± 0.7%
- Compound Plus Kainate (%): % of the response seen with 30 μM kainate alone ([1]; xenopus oocytes, 1000 µM): 31.3 ± 2.0%

Structure (SMILES): N[C@H](CCC(=O)NCC(=O)O)C(=O)O [γ-DGG, D-glutamylglycine]
- inhibition of kainate-evoked depolarizations (in words) [1]: inhibited kainate responses
- Compound Alone (%): % of the response evoked by 30 μM kainate immediately before drug application ([1]; xenopus oocytes, 1000 µM): -0.1 ± 0.5%
- Compound Plus Kainate (%): % of the response seen with 30 μM kainate alone ([1]; xenopus oocytes, 1000 µM): 30.8 ± 1.1%

Structure (SMILES): N[C@@H](Cn1oc(=O)[nH]c1=O)C(=O)O [quisqualate, quisqualic acid]
- membrane depolarizations elicited [2]: did not elicit membrane depolarizations
- membrane depolarizations elicited [3]: did not elicit membrane depolarizations
- effect on kainate-evoked current [4]: attenuated a subsequent kainate evoked current
- inward current evoked [4]: activated only small inward currents

Structure (SMILES): NCCCC(=O)O [γ-aminobutyric acid]
- responses evoked by unrelated neurotransmitter receptor agonists ([1]; concentrations as high as 1 mM): failed to evoke responses

Structure (SMILES): NCC(=O)O [glycine]
- potentiation of the KA response [1]: did not potentiate the KA response
- responses evoked by unrelated neurotransmitter receptor agonists [1]: failed to evoke responses

Structure (SMILES): CCOC(=O)CC[C@H](N)C(=O)OCC [GDEE, glutamate diethylester]
- agonist properties (in words) [1]: displayed weak agonist properties
- inhibition of kainate-evoked depolarizations (in words) [1]: did not block the response significantly
- Compound Alone (%): % of the response evoked by 30 μM kainate immediately before drug application ([1]; xenopus oocytes, 1000 µM): 24.8 ± 5.7%
- Compound Plus Kainate (%): % of the response seen with 30 μM kainate alone ([1]; xenopus oocytes, 1000 µM): 97.8 ± 6.6%

Structure (SMILES): CS(=O)(=O)O [methanesulfonate, sodium methanesulfonate]
- reduction of kainate-evoked current ([4]; 95% of Cl- substituted by methanesulfonate): 8 fold

Structure (SMILES): CN[C@H](CC(=O)O)C(=O)O [NMDA, N-methyl-D-aspartic acid]
- membrane depolarizations elicited [2]: did not elicit membrane depolarizations
- membrane depolarizations elicited [3]: did not elicit membrane depolarizations
- response of Con A treated oocytes [4]: did not respond
- response to agonist [1]: No detectable responses
- responses evoked by other glutamate receptor agonists [1]: evoked no responses
- agonist properties (in words) [1]: did not show any agonist properties
- inhibition of kainate-evoked depolarizations (in words) [1]: slightly inhibited the KA responses
- response to agonist [5]: No detectable responses
- response to selective agonists [6]: elicited smooth responses with fast onsets
- responses detected [7]: No responses

Structure (SMILES): NC(CCCP(=O)(O)O)C(=O)O (centres unmarked) [APV, 2amino-5-phospho-novaleric acid]
- agonist properties (in words) [1]: did not show any agonist properties
- inhibition of kainate-evoked depolarizations (in words) [1]: slightly inhibited the KA responses
- Compound Plus Kainate (%): % of the response seen with 30 μM kainate alone ([1]; test compounds 1 mM plus 30 μM kainate, -70 mV, peak currents, average of 3 oocytes ± SEM): 73.7 ± 3.2%
- Compound Alone (%): % of the response evoked by 30 μM kainate immediately before drug application ([1]; test compounds 1 mM, kainate 30 μM, -70 mV, peak currents, average of 3 oocytes ± SEM): 3.1 ± 1.4%

Structure (SMILES): Cc1onc(O)c1CC(N)C(=O)O (stereo not drawn) [AMPA, α-amino-3-hydroxy-5-methyl-isoxazole-4-propionic acid]
- effect on kainate-evoked current [4]: nor did it antagonize a kainate-evoked current
- response of Con A treated oocytes [4]: did not respond
- effect of coapplication on kainate-evoked (1 μM) responses ([4]; AMPA 100 μM, Con A treated oocytes): had no effect
- inward current evoked [4, 9]: did not evoke any detectable current
- responsiveness of homomeric ion channels [4]: but not to AMPA

Structure (SMILES): C/C(=C/C=C/[C@@H](C)C(=O)O)[C@H]1CN[C@H](C(=O)O)[C@H]1CC(=O)O [domoate, domoic acid]
- response compared with kainate ([7]; 10 μM domoate vs 100 μM kainate): response similar to the one elicited by 100 μM kainate

Structure (SMILES): O=C(O)C1CN(CCCP(=O)(O)O)CCN1 (centres unmarked) [CPP]
- agonist properties (in words) [1]: did not show any agonist properties
- inhibition of kainate-evoked depolarizations (in words) [1]: slightly inhibited the KA responses
- Compound Alone (%): % of the response evoked by 30 μM kainate immediately before drug application ([1]; xenopus oocytes, 1000 µM): 9.1 ± 0.7%
- Compound Plus Kainate (%): % of the response seen with 30 μM kainate alone ([1]; xenopus oocytes, 1000 µM): 78.8 ± 0.9%

Structure (SMILES): N#Cc1cc2[nH]c(=O)c(=O)[nH]c2cc1[N+](=O)[O-] [CNQX, 6-nitro-7-cyano-quinoxaline-2,3-dione]
- block of agonist-evoked responses [4]: blocked both quisqualate and kainate-evoked responses
- Ki [8]: 295 nM

Structure (SMILES): CN1CCCC1c1cccnc1 (centres unmarked) [nicotine]
- responses evoked by unrelated neurotransmitter receptor agonists [1]: failed to evoke responses

Structure (SMILES): NCCc1c[nH]c2ccc(O)cc12 [serotonin]
- responses evoked by unrelated neurotransmitter receptor agonists ([1]; concentrations as high as 1 mM): failed to evoke responses

Structure (SMILES): C=C(C)[C@H]1CN[C@H](C(=O)O)[C@H]1CC(=O)O [kainate, kainic acid]
- current at -70 mV ([4]; Con A treated, modified Ringer solution (sodium methanesulfonate)): 330 nA
- current at -70 mV ([4]; Ringer solution, after Con A treatment): 2.3 μa
- current at -70 mV ([4]; Ringer solution, before Con A treatment): 30 nA
- response of Con A treated oocytes ([4]; 100 μM aspartate, 100 μM NMDA with 3 μM glycine, 10-1000 μM AMPA): responded
- time to full recovery from desensitization ([4]; 100 μM kainate for 30 seconds): approximately 15 minutes
- inward current evoked [4, 9]: evoked inward currents that desensitized
- responsiveness of homomeric ion channels [4]: responsive to KA
- desensitization of responses ([1]; prolonged (up to 10 minutes) superfusion, 100 μM agonist): did not desensitize

Structure (SMILES): NC(CCP(=O)(O)O)C(=O)O (centres unmarked) [APB, 2-amino-4-phosphonobutyric acid]
- membrane depolarizations elicited ([2]; KA 100 MM, AMPA 50 μM, quisqualate 10 μM, APB 100 μM, NMDA 100 μM with 10 μM glycine): did not elicit membrane depolarizations
- membrane depolarizations elicited ([3]; AMPA 50 μM, quisqualate 10 μM, APB 100 μM, NMDA 100 μM with 10 μM glycine): did not elicit membrane depolarizations
- response to agonist [1, 10]: No detectable responses
- response to agonist [5, 10]: No detectable responses
- response to selective agonists [6]: gave no response
